In patent US9763934B2, “Synergistic effect of poloxamer-based composition and itraconazole on fungus and yeast” (Professional Compounding Centers of America (PCCA), priority 2014, dated 2017):

Test system: C. albicans ATCC 90028 biofilm
Test: Antifungal biofilm susceptibility testing (MBIC), NCCLS M27-A broth microdilution, CellTiter 96 viability readout
Assay type: cell-based, Candida albicans
Protocol: Materials: Itraconazole EP Micronized (lot number C149307) and PCCA Formula #10342 (4 g of Itraconazole EP Micronized +37.574 g of Poloxamer composition) were provided by PCCA (Houston, Tex., USA) as powders. Itraconazole and PCCA Formula #10342 were prepared on the day of the assay. Fluconazole and amphotericin B were obtained as powders and stored at 4° C. […] Strain: Candida albicans isolate ATCC 90028 was obtained from American Type Culture Collection (Manassas, Va.), and used in the course of this study. Methods: To determine antimicrobial activity of itraconazole and micronized poloxamer composition 202 against biofilms of Candida albicans, an antifungal biofilm susceptibility testing was developed in conditions where a Minimum Biofilm Inhibitory Concentration (MBIC) of itraconazole in a micronized poloxamer composition 202, micronized poloxamer excipient, itraconazole, fluconazole and amphotericin B was measured for the C. albicans biofilm according to the NCCLS M27-A broth microdilution method (NCCLS, 1997). The testing medium used for growing was RPMI 1640 (American Biorganics, Inc., […].) supplemented with L-glutamine (Sigma Aldrich®). […] Cell viability was determined by using CellTiter 96® Non-Radioactive Cell Proliferation Assay (Promega, 2013).

SMILES: C[C@@H]1[C@H](O)[C@@H](C)/C=C/C=C/C=C/C=C/C=C/C=C/C=C/[C@H](O[C@@H]2O[C@H](C)[C@@H](O)[C@H](N)[C@@H]2O)C[C@@H]2O[C@](O)(C[C@@H](O)C[C@@H](O)[C@H](O)CC[C@@H](O)C[C@@H](O)CC(=O)O[C@H]1C)C[C@H](O)[C@H]2C(=O)O [Amphotericin B, amphotericin B]
- MBIC: 0.5 µg/mL
- Minimum Biofilm Inhibitory Concentration (48 h at 35° C., lowest concentration giving 50% reduction of fungal growth, combination value expressed as concentration of itraconazole): 0.5 µg/mL
